Patent publication US20200163984A1, “USE OF ISOVALERYL SPIRAMYCIN I, II AND/OR III IN MANUFACTURING MEDICAMENT FOR TREATING AND/OR PREVENTING TUMOR, AND MEDICAMENT” (SHENYANG FUYANG PHARMACEUTICAL TECHNOLOGY CO., LTD., priority 2017, published 2020)

What was measured:
[1] = tested on: transplanted tumor of HL60 cells; experiment: HL-60 transplanted tumor in nude mice; settings: for Tumor Volume (mm3) (d30): d 30
Procedure: (§1) HL-60 cells in a logarithmic growth phase were taken and subjected to a trypan blue exclusion experiment showing that the cell viability was more than 95%, then the cells were subjected to trypsinization, centrifugation, and supernatant removal. Then cell concentration was adjusted to 1×10^7/ml with matrigel, then each nude mouse was inoculated subcutaneously with 0.2 ml of cells at its right armpit and recorded as the first day of inoculation. When the tumor grows to be greater than or equal to 100 mm^3, the mice were randomly divided into 11 groups with 6 mice in each group: isovaleryl spiramycin I groups with doses of 25, 50 and 100 mg/kg, isovaleryl spiramycin II groups with doses of 25, 50 and 100 mg/kg, and isovaleryl spiramycin III groups with doses of 25, 50 and 100 mg/kg. Each group was continuously administered intragastrically for 30 days with a dose of 20 ml/kg. The mice were sacrificed the next day after drug withdrawal and the indicators were tested. The long diameter and short diameter of the tumor, and the weight of each mouse were recorded every 3 days from drug administration to nude mouse sacrifice.
(§2) The body weight of the nude mice and the long diameter (a) and short diameter (b) of the transplanted tumor were measured every 3 days, and the tumor volume (v), relative tumor volume (RTV) and relative tumor proliferation rate (T/C) are calculated respectively according to the following formulas, wherein V=a×b^2/2; RTV=V/V0 (V0 is the tumor volume before administration, V is the tumor volume before sacrifice), and T/C (%)=treatment group RTV/model control group RTV×100%.
(§3) Each mouse was weighed and sacrificed. After the tumor was completely stripped off from the body of the mouse, the non-tumor tissues such as blood stains and fat were removed to weigh the tumor and calculate the tumor growth inhibition rate. The average tumor weight of each group of mice is used as an indicator of efficacy. Tumor growth inhibition rate (%)=(1−the average tumor weight of the treatment group/the average tumor weight of the model group)×100%.

[2] = tested on: transplanted tumor of human non-small cell lung cancer cell A549; experiment: A549 transplanted tumor in nude mice; settings: for Tumor Volume (mm3) (d 1): d1
Procedure: as §1, with “A549 cells in” for “HL-60 cells in”, “each group: a model group, a cyclophosphamide group, isovaleryl spiramycin” for “each group: isovaleryl spiramycin”, “and the body weight of” for “and the weight of”
as §2, §3

[3] = tested on: transplanted tumor of human thyroid cancer cell TPC-1; experiment: TPC-1 transplanted tumor in nude mice; settings: for Tumor Volume (mm3) (d30): d 30
Procedure: as §1, with “Then cell” for “HL-60 cells in a logarithmic growth phase were taken and subjected to a trypan blue exclusion experiment showing that the cell viability was more than 95%, then the cells were subjected to trypsinization, centrifugation, and supernatant removal. Then cell”, “and the body weight of” for “and the weight of”
as §2, §3

[4] = HL-60, high dose (100 mg/kg in method) i.g. 30 days
[5] = HL-60, low dose (25 mg/kg in method) i.g. 30 days
[6] = HL-60, medium dose (50 mg/kg in method) i.g. 30 days
[7] = A549, high dose (100 mg/kg in method) i.g. 30 days
[8] = A549, low dose (25 mg/kg in method) i.g. 30 days
[9] = A549, medium dose (50 mg/kg in method) i.g. 30 days
[10] = TPC-1, high dose (100 mg/kg in method) i.g. 30 days
[11] = TPC-1, low dose (25 mg/kg in method) i.g. 30 days
[12] = TPC-1, medium dose (50 mg/kg in method) i.g. 30 days

- mouse weight compared with the model group ([1]; mouse, in vivo): no significant changes
- mouse weight compared with the model group ([2]; mouse, in vivo): no significant changes
- mouse weight compared with the model group ([3]; mouse, in vivo): no significant changes
SMILES: CO[C@@H]1[C@@H](O[C@@H]2O[C@H](C)[C@@H](O[C@H]3C[C@@](C)(O)[C@@H](OC(=O)CC(C)C)[C@H](C)O3)[C@H](N(C)C)[C@H]2O)[C@@H](CC=O)C[C@@H](C)[C@@H](O[C@H]2CC[C@H](N(C)C)[C@@H](C)O2)/C=C/C=C/C[C@@H](C)OC(=O)C[C@H]1O [Isovaleryl spiramycin I, isovaleryl spiramycin I]
- Relative Tumor Proliferation Rate (T/C) [1, 4]: 32.70%
- tumor growth inhibition rate [1, 4]: 64.19%
- Relative Tumor Proliferation Rate (T/C) [1, 5]: 84.96%
- tumor growth inhibition rate [1, 5]: 11.57%
- tumor volume and relative tumor volume compared with the model group ([1]; HL-60, low, medium and high doses, P<0.05): significantly lower
- Relative Tumor Proliferation Rate (T/C) [1, 6]: 59.54%
- tumor growth inhibition rate [1, 6]: 34.78%
- Inhibition Rate (%) ([1]; dose 25 mg/kg): 11.57%
- Relative Tumor Proliferation Rate (T/C) ([1]; dose 25 mg/kg): 84.96%
- Relative Tumor Volume (RTV) ([1]; dose 25 mg/kg): 9.56 ± 2.41
- Tumor Weight ([1]; dose 25 mg/kg): 2.00 ± 0.34 g
- Tumor Volume (mm3) (d 1) ([1]; dose 25 mg/kg): 182.56 ± 25.80 mm3
- Tumor Volume (mm3) (d30) ([1]; dose 25 mg/kg): 1702.01 ± 305.75 mm3
- Inhibition Rate (%) ([1]; dose 50 mg/kg): 34.78%
- Relative Tumor Proliferation Rate (T/C) ([1]; dose 50 mg/kg): 59.54%
- Relative Tumor Volume (RTV) ([1]; dose 50 mg/kg): 6.70 ± 2.58
- Tumor Weight ([1]; dose 50 mg/kg): 1.48 ± 0.38 g
- Tumor Volume (mm3) (d 1) ([1]; dose 50 mg/kg): 189.04 ± 24.48 mm3
- Tumor Volume (mm3) (d30) ([1]; dose 50 mg/kg): 1230.70 ± 332.94 mm3
- Inhibition Rate (%) ([1]; dose 100 mg/kg): 64.19%
- Relative Tumor Proliferation Rate (T/C) ([1]; dose 100 mg/kg): 32.70%
- Relative Tumor Volume (RTV) ([1]; dose 100 mg/kg): 3.68 ± 2.51
- Tumor Weight ([1]; dose 100 mg/kg): 0.81 ± 0.42 g
- Tumor Volume (mm3) (d 1) ([1]; dose 100 mg/kg): 183.82 ± 20.41 mm3
- Tumor Volume (mm3) (d30) ([1]; dose 100 mg/kg): 657.95 ± 411.53 mm3
- Body Weight (g) (d1) ([1]; mouse, in vivo, 25 mg/kg): 20.75 ± 1.20 g
- Body Weight (g) (d30) ([1]; mouse, in vivo, 25 mg/kg): 20.66 ± 1.08 g
- Body Weight (g) (d1) ([1]; mouse, in vivo, 50 mg/kg): 20.4 ± 1.60 g
- Body Weight (g) (d30) ([1]; mouse, in vivo, 50 mg/kg): 20.35 ± 1.20 g
- Body Weight (g) (d1) ([1]; mouse, in vivo, 100 mg/kg): 20.63 ± 1.33 g
- Body Weight (g) (d30) ([1]; mouse, in vivo, 100 mg/kg): 20.56 ± 1.77 g
- Relative Tumor Proliferation Rate (T/C) [2, 7]: 28.35%
- tumor growth inhibition rate [2, 7]: 69.52%
- Relative Tumor Proliferation Rate (T/C) [2, 8]: 67.18%
- tumor growth inhibition rate [2, 8]: 24.00%
- tumor volume and relative tumor volume compared with the model group ([2]; A549, low, medium and high doses, P<0.05): significantly lower
- Relative Tumor Proliferation Rate (T/C) [2, 9]: 41.93%
- tumor growth inhibition rate [2, 9]: 58.10%
- Inhibition Rate (%) ([2]; A549 nude mice, 25 mg/kg): 24.00%
- Relative Tumor Proliferation Rate (T/C) ([2]; A549 nude mice, 25 mg/kg): 67.18%
- Relative Tumor Volume (RTV) ([2]; A549 nude mice, 25 mg/kg): 10.91 ± 2.63
- Tumor Weight ([2]; A549 nude mice, 25 mg/kg): 1.82 ± 0.19 g
- Tumor Volume (mm3) (d 1) ([2]; A549 nude mice, 25 mg/kg): 111.89 ± 12.17 mm3
- Tumor Volume (mm3) (d30) ([2]; A549 nude mice, 25 mg/kg): 1227.24 ± 329.84 mm3
- Inhibition Rate (%) ([2]; A549 nude mice, 50 mg/kg): 58.10%
- Relative Tumor Proliferation Rate (T/C) ([2]; A549 nude mice, 50 mg/kg): 39.42%
- Relative Tumor Volume (RTV) ([2]; A549 nude mice, 50 mg/kg): 6.40 ± 1.75
- Tumor Weight ([2]; A549 nude mice, 50 mg/kg): 1.00 ± 0.44 g
- Tumor Volume (mm3) (d 1) ([2]; A549 nude mice, 50 mg/kg): 119.73 ± 5.73 mm3
- Tumor Volume (mm3) (d30) ([2]; A549 nude mice, 50 mg/kg): 750.44 ± 220.77 mm3
- Inhibition Rate (%) ([2]; A549 nude mice, 100 mg/kg): 69.52%
- Relative Tumor Proliferation Rate (T/C) ([2]; A549 nude mice, 100 mg/kg): 28.35%
- Relative Tumor Volume (RTV) ([2]; A549 nude mice, 100 mg/kg): 4.60 ± 3.69
- Tumor Weight ([2]; A549 nude mice, 100 mg/kg): 0.73 ± 0.45 g
- Tumor Volume (mm3) (d 1) ([2]; A549 nude mice, 100 mg/kg): 110.27 ± 11.43 mm3
- Tumor Volume (mm3) (d30) ([2]; A549 nude mice, 100 mg/kg): 475.83 ± 355.37 mm3
- Body Weight (g) (d1) ([2]; mouse, in vivo, 25 mg/kg): 21.54 ± 1.27 g
- Body Weight (g) (d30) ([2]; mouse, in vivo, 25 mg/kg): 24.20 ± 1.33 g
- Body Weight (g) (d1) ([2]; mouse, in vivo, 50 mg/kg): 21.48 ± 1.46 g
- Body Weight (g) (d30) ([2]; mouse, in vivo, 50 mg/kg): 25.56 ± 1.67 g
- Body Weight (g) (d1) ([2]; mouse, in vivo, 100 mg/kg): 21.36 ± 1.82 g
- Body Weight (g) (d30) ([2]; mouse, in vivo, 100 mg/kg): 24.47 ± 1.98 g
- Relative Tumor Proliferation Rate (T/C) [3, 10]: 28.11%
- tumor growth inhibition rate [3, 10]: 67.49%
- Relative Tumor Proliferation Rate (T/C) [3, 11]: 65.45%
- tumor growth inhibition rate [3, 11]: 23.88%
- tumor volume and relative tumor volume compared with the model group ([3]; TPC-1, low, medium and high doses, P<0.05): significantly lower
- Relative Tumor Proliferation Rate (T/C) [3, 12]: 43.43%
- tumor growth inhibition rate [3, 12]: 57.28%
- Inhibition Rate (%) ([3]; dose 25 mg/kg): 23.88%
- Relative Tumor Proliferation Rate (T/C) ([3]; dose 25 mg/kg): 65.45%
- Relative Tumor Volume (RTV) ([3]; dose 25 mg/kg): 10.77 ± 2.47
- Tumor Weight ([3]; dose 25 mg/kg): 1.84 ± 0.25 g
- Tumor Volume (mm3) (d 1) ([3]; dose 25 mg/kg): 115.05 ± 9.93 mm3
- Tumor Volume (mm3) (d30) ([3]; dose 25 mg/kg): 1249.28 ± 337.45 mm3
- Inhibition Rate (%) ([3]; dose 50 mg/kg): 57.28%
- Relative Tumor Proliferation Rate (T/C) ([3]; dose 50 mg/kg): 43.43%
- Relative Tumor Volume (RTV) ([3]; dose 50 mg/kg): 7.15 ± 3.19
- Tumor Weight ([3]; dose 50 mg/kg): 1.03 ± 0.44 g
- Tumor Volume (mm3) (d 1) ([3]; dose 50 mg/kg): 119.45 ± 4.30 mm3
- Tumor Volume (mm3) (d30) ([3]; dose 50 mg/kg): 847.07 ± 356.87 mm3
- Inhibition Rate (%) ([3]; dose 100 mg/kg): 67.49%
- Relative Tumor Proliferation Rate (T/C) ([3]; dose 100 mg/kg): 28.11%
- Relative Tumor Volume (RTV) ([3]; dose 100 mg/kg): 4.63 ± 3.34
- Tumor Weight ([3]; dose 100 mg/kg): 0.79 ± 0.43 g
- Tumor Volume (mm3) (d 1) ([3]; dose 100 mg/kg): 112.69 ± 11.49 mm3
- Tumor Volume (mm3) (d30) ([3]; dose 100 mg/kg): 490.15 ± 322.14 mm3
- Body Weight (g) (d1) ([3]; mouse, in vivo, 25 mg/kg): 21.75 ± 1.23 g
- Body Weight (g) (d30) ([3]; mouse, in vivo, 25 mg/kg): 24.41 ± 1.32 g
- Body Weight (g) (d1) ([3]; mouse, in vivo, 50 mg/kg): 21.53 ± 1.43 g
- Body Weight (g) (d30) ([3]; mouse, in vivo, 50 mg/kg): 25.77 ± 1.10 g
- Body Weight (g) (d1) ([3]; mouse, in vivo, 100 mg/kg): 21.76 ± 1.08 g
- Body Weight (g) (d30) ([3]; mouse, in vivo, 100 mg/kg): 24.12 ± 1.20 g
